Measured values from patent publication US8569379B2 (Teva Pharmaceutical Industries Ltd., priority 2010, dated 2013).
Like-named read-outs stand apart in the source and are kept apart here.

Legend:
[1] = system: alpha-synuclein over-expressing (mutants) mice (Thy1-aSyn)
Description: (§1) Transgenic mice overexpressing alpha-synuclein under the Thy1 promoter (Thy1-aSyn) have high levels of alpha-synuclein expression throughout the brain but no loss of nigrostriatal dopamine neurons up to 8 months. […] Overexpression of alpha-synuclein is sufficient to cause olfactory deficits in mice similar to that observed in patients with PD (2).
Odor detection threshold is the lowest concentration (dilution 10^−8; 10^−6; 10^−4 in the water) at which mice are able to detect a novel odor. Upon detection of a novel odor, mice will spend more time sniffing it. The detection threshold was measured as percentage of time sniffing novel odor out of total time of sniffing.

Wild type (WT) mice [2] = system: Wild type (WT) mice
Description: (§2) The underlying principle was that if mice would spend less time sniffing the odor at T2 (second exposure to the odor) their short term olfactory memory is intact. The testing parameter was percentage of time of sniffing at T2, calculated as time of sniffing at T2 out of total time of sniffing at T1 (first exposure) & T2.

[3] = system: alpha-synuclein over-expressing (mutants) mice (Thy1-aSyn); details: α-syn mutants; in particular at the 1.5 min interval
Description: as §1, §2

Wild type (WT) mice [4] = details: strong intensity
Description: (§3) The experiment was further subdivided into two levels of odor intensity:
(§4) Light intensity: two days of odor impregnation
(§5) Strong intensity: seven days of odor impregnation
(§6) The testing parameter was percentage of time of sniffing novel odor out of total time of sniffing.

[5] = system: alpha-synuclein over-expressing (mutants) mice (Thy1-aSyn); remark: listed apart in the source
Description: as §1, §3, §4, §5, §6

Wild type (WT) mice [6] = details: WT mice receiving rasagiline, group mean, n = 18
Description: In this experiment, lemon odor served as a familiar odor (F), and lime—as a novel odor (N) (FIG. 4A). Mice capable of discriminating between the odors will spend more time sniffing the new odor. The testing parameter was percentage of time of sniffing novel odor out of total time of sniffing.

[7] = system: alpha-synuclein over-expressing (mutants) mice (Thy1-aSyn); remark: listed apart in the source
Description: Transgenic mice overexpressing alpha-synuclein under the Thy1 promoter (Thy1-aSyn) have high levels of alpha-synuclein expression throughout the brain but no loss of nigrostriatal dopamine neurons up to 8 months. […] Overexpression of alpha-synuclein is sufficient to cause olfactory deficits in mice similar to that observed in patients with PD (2). […] In this experiment, lemon odor served as a familiar odor (F), and lime—as a novel odor (N) (FIG. 4A). Mice capable of discriminating between the odors will spend more time sniffing the new odor. The testing parameter was percentage of time of sniffing novel odor out of total time of sniffing.

Wild type (WT) mice [8] = details: WT mice receiving rasagiline; group mean, n = 18
Description: (§7) The time periods that mice spent sniffing lemon and lime were compared. The testing parameters were percentage of time of sniffing lemon out of total time of sniffing and percentage of time of sniffing lime out of total time of sniffing.

[9] = system: alpha-synuclein over-expressing (mutants) mice (Thy1-aSyn); details: α-syn mutants receiving rasagiline; group mean, n = 19
Description: as §1, §7

Wild type (WT) mice [10] = details: for Time of exploration: novel object; for Time of exploration / % Time exploring novel object: WT mice receiving rasagiline, individual mice, Mean row = group mean (n = 9); for % Time exploring novel object: out of total time of the trial
Description: (§8) The testing parameters were percentage of time exploring the novel object out of total time of the trial.

[11] = system: alpha-synuclein over-expressing (mutants) mice (Thy1-aSyn); remark: listed apart in the source
Description: as §1, §8

Wild type (WT) mice [12] = details: WT mice receiving rasagiline; group mean, n = 9
Description: The objective was to determine whether the odor discrimination deficit was specific to the olfactory function (FIG. 7A).
The testing parameters was percentage of time exploring the novel object/odor out of total time of exploration.

[13] = system: alpha-synuclein over-expressing (mutants) mice (Thy1-aSyn); remark: listed apart in the source
Description: as §1, with “(2). […] The objective was to determine whether the odor discrimination deficit was specific to the olfactory function (FIG. 7A). The testing parameters was percentage of time exploring the novel object/odor out of total time of exploration.” for “(2).”

[14] = system: transgenic mouse models for the study of olfactory loss
Description: (Lane et al., “Development of transgenic mouse models for the study of human olfactory dysfunction”, Am J. Rhinol., 2005, May-June; 19(3):229-35.)

[15] = strong social odors, α-syn mutants receiving rasagiline, group mean, n = 20
[16] = non-social odors, N = lime (novel)
[17] = non-social odors, N = lime (novel), α-syn mutants receiving rasagiline, group mean, n = 20
[18] = α-syn mutants receiving rasagiline, group mean, n = 9

C#CCN[C@@H]1CCc2ccccc21 [Rasagiline, R(+)-N-propargyl-1-aminoindan]
odor threshold (lowest odor dilution detected) ([1]; α-syn mutants with rasagiline, untreated mutants 10^−4, dilution in water): 10^6
odor detection ability ([1]; α-syn mutants, odor concentration 10^−6): improved the odor detection ability of α-syn mutants
short-term olfactory memory compared to WT-water (Wild type (WT) mice [2]; ITI of 2 min): reduced short-term olfactory memory compared to WT-water
effect on short term olfactory memory (Wild type (WT) mice [2]; in particular at the 1.5 min interval): positive effect on short term olfactory memory
effect on short term olfactory memory [3]: positive effect on short term olfactory memory
discrimination of strong social odor (Wild type (WT) mice [4]): improves discrimination of strong social odor
Time Sniffing F [5, 15]: 3.1
Total time sniffing [5, 15]: 12.4
discrimination of light social odor ([5]; α-syn mutants, light intensity): improves discrimination of light social odor
discrimination of strong social odor ([5]; α-syn mutants, strong intensity): improves discrimination of strong social odor
Total time sniffing (Wild type (WT) mice [6]; non-social odors lemon/lime): 42.5
Time Sniffing F (Wild type (WT) mice [6]; non-social odors, F = lemon (familiar)): 11.9
% time sniffing N (Wild type (WT) mice [6]; [16]): 72.1%
Time Sniffing N (Wild type (WT) mice [6]; [16]): 30.6
Total time sniffing ([7]; non-social odors lemon/lime, α-syn mutants receiving rasagiline, group mean, n = 20): 14.8
Time Sniffing F ([7]; non-social odors, F = lemon (familiar), α-syn mutants receiving rasagiline, group mean, n = 20): 3.7
% time sniffing N [7, 17]: 70.2%
Time Sniffing N [7, 17]: 11.2
discrimination of two close non-social odors ([7]; α-syn mutant mice, lemon (familiar) vs lime (novel)): improves discrimination of two close non-social odors
% Time sniffing Lemon (Wild type (WT) mice [8]): 52.9%
% Time sniffing Lime (Wild type (WT) mice [8]): 47.1%
Time of sniffing (s) Lemon (Wild type (WT) mice [8]): 25.9 s
Time of sniffing (s) Lime (Wild type (WT) mice [8]): 23.3 s
Time of sniffing (s) Total (Wild type (WT) mice [8]): 49.2 s
% Time sniffing Lime [9]: 52.6%
Time of sniffing (s) Lemon [9]: 6.1 s
Time of sniffing (s) Lime [9]: 8.7 s
Time of sniffing (s) Total [9]: 14.9 s
effect on novel object exploration (Wild type (WT) mice [10]; WT mice): no effect on novel object exploration
Time of exploration (Wild type (WT) mice [10]; listed as Rasagilina): 100.0 s
Time of exploration (Wild type (WT) mice [10]; listed as Rasagilins): 115.1 s
% Time exploring novel object (Wild type (WT) mice [10]; listed as Rasagilina): 33.3%
% Time exploring novel object (Wild type (WT) mice [10]; listed as Rasagilins): 38.4%
Time of exploration ([11]; novel object, α-syn mutants receiving rasagiline, group mean, n = 11): 79.3 s
% Time exploring novel object ([11]; out of total time of the trial, α-syn mutants receiving rasagiline, group mean, n = 11): 26.4%
effect on novel object exploration ([11]; α-syn mutants): no effect on novel object exploration
% Time exploring novel object (Wild type (WT) mice [12]): 96.2%
Time of Exploration (s) Familiar object (Wild type (WT) mice [12]): 3.0 s
Time of Exploration (s) Novel object (Wild type (WT) mice [12]): 85.0 s
Time of Exploration (s) Total (Wild type (WT) mice [12]): 88.0 s
novel object/odor discrimination ability ([13]; α-syn mutants): improves the discrimination ability of the mutants to substantially WT levels
% Time exploring novel object [13, 18]: 92.2%
Time of Exploration (s) Familiar object [13, 18]: 3.6 s
Time of Exploration (s) Novel object [13, 18]: 48.7 s
Time of Exploration (s) Total [13, 18]: 52.4 s
treating the symptoms of olfactory dysfunction ([14]; each of two transgenic mouse models): effective in treating the symptoms of olfactory dysfunction
functional decline ([14]; transgenic mouse models): effective in reducing the functional decline
rate of progression of olfactory dysfunction ([14]; transgenic mouse models): effective in reducing the rate of progression of olfactory dysfunction
